Test: pH-dependence of keto acid-lactol equilibrium by 1H-NMR in D2O
Type: physicochemical

## Nc1ncnc2c1ncn2[C@@H]1O[C@H](CNS(=O)(=O)NC(=O)CCC(=O)c2ccccc2C(=O)O)[C@@H](O)[C@H]1O [Inhibitor 5]
Intermediate chemical shifts
  pD range of rapid equilibration of keto acid and lactol forms: 1.32–4.32 pD
Ketone α-protons at ≈2.45 ppm
  pD at which the lactol form is observed: 0.89 pD
Ketone α-protons at ≈3.2 ppm
  pD at which the keto acid form is observed: ≥ 5.70 pD

Reference: PMC3436903 (Chembiochem : a European journal of chemical biology, 2011)
